Reference: patent publication US20050238734A1, “Detection of nitrosylated proteins” (University of Vermont and State Agricultural College, priority 2004, published 2005)

Tests used:
[1] = system: C10 cells; test: In situ detection of S-nitrosylated proteins in intact cells (biotin derivatization, streptavidin-FITC, confocal microscopy); assay type: cell-based, mouse
Procedure: A line of spontaneously transformed mouse lung alveolar type II epithelial cells (C10) was used in some experiments, as described below. C10 cells were cultured in CMRL1066 medium containing 10% fetal bovine serum (FBS, GIBCO). In experiments involving microscopic analysis, the cells were grown on glass cover slips. At about one hour prior to exposure to a test agent, the medium was switched to phenol red free DMEM/F12 containing 0.5% FBS. Some cells were exposed to S-nitroso-glutathione (GSNO) or S-nitroso-N-acetyl penicillamine (SNAP) for about 1 hour, in the presence of an equimolar concentration of freshly prepared L-cysteine. To monitor S-nitrosylation in response to NOS2 activation, the cells were treated with 10 ng/ml TNF alpha (TNFα) and 100 U/ml interferon gamma (IFNγ), for about 24 hours. Incubation with L-N-monomethyl arginine (L-NMMA) for about 16 hours was used to inhibit endogenous NO production and D-NMMA (D-N-monomethyl arginine) was used as a control. Nuclear export was blocked by leptomycin B (5 ng/ml, exposure for about 12 hours). All experiments were performed in duplicate and were repeated at least three times.
To evaluate the localization of S-nitrosylated proteins in intact cells, the biotin derivatization method described above was used in combination with fluorophore labeling and visualized using confocal microscopy. Cells grown on cover slips were rinsed with PBS containing 0.1 mM EDTA and 0.01 mM neocuproine, and fixed in 4% PFA (paraformaldehyde) for 20 minutes at RT. The cells were permeabilized, and protein SH groups were blocked using HEN buffer containing 2.5% SDS, 0.5% CHAPS, and 20 mM MMTS (methylmethanethiosulfonate) for 20 min at 55° C. with constant shaking. After removal of MMTS, the cells were incubated with 1 mM sodium ascorbate and 0.4 mM biotin-HPDP (N-[6-(biotinamido)hexyl]-3′-(2′-pyridyldithio)propionamide) for about an hour at RT, and the cover slips were then incubated overnight with streptavidin-FITC at 4° C. Blocking was performed using 20 mM NEM for 30 minutes at 4° C., followed by incubation with 0.05 mM MPB and 1 mM sodium ascorbate for 1 hour at RT. The nuclei were stained with 10 microgram/ml PI (propidium iodide) for 30 minutes at RT. The cells were analyzed by confocal microscopy (magnification 40×) using an Olympus BX50 microscope coupled to a Bio-Rad (Hercules Calif.) MRC 1024 confocal scanning laser microscope system. Control experiments were also performed in which blocking of SH groups was omitted, or in which 100 micromolar HgCl2 was added prior to blocking of SH groups with MMTS or NEM. To assess the contribution of endogenous biotinylated proteins, the biotin-label was omitted in some control cover slips. All manipulations were performed in the dark. […]

[2] = target: T1, IKKβ (Homo sapiens, UniProt O14920); test: Biotin derivatization (biotin switch) of IKKβ in Jurkat T cells; assay type: cell-based
T1 construct: IKKβ was immunopurified from TNFα-stimulated Jurkat T cells treated with SNO; endogenous in cells; host or cells: Jurkat T cells
T1 sequence (O14920 1-756): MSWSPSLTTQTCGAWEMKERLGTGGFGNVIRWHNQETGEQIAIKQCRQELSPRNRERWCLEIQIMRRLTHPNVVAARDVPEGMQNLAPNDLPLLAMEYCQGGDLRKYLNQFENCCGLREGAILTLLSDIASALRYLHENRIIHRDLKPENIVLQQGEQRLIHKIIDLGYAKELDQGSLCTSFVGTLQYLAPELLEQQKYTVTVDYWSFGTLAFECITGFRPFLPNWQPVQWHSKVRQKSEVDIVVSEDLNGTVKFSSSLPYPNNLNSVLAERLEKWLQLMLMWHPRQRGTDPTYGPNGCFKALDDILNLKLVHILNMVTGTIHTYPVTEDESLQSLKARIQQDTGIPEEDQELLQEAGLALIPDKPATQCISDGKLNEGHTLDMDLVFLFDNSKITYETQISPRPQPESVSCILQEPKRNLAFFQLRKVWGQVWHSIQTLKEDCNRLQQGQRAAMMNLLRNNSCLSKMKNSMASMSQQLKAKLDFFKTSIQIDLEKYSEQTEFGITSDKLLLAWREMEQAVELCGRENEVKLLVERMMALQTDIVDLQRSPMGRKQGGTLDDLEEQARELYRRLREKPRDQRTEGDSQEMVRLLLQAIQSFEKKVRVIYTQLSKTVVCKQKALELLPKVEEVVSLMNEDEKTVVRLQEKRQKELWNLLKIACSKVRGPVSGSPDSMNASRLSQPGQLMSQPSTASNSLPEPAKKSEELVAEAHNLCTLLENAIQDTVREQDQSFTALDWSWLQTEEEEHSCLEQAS
Procedure: The detection of S-nitrosylated proteins was performed via a biotin switch method as follows. Following treatments, the cells were rinsed 2 times with PBS containing 0.1 mM EDTA and 0.01 mM neocuproine and lysed in HEN buffer (25 mM HEPES, pH 7.7, 0.1 mM EDTA, 0.01 mM neocuproine) containing 0.5% CHAPS, 0.1% SDS and 20 mM N-ethylmaleimide (NEM) at 4° C. for 30 min in order to block free thiols. The lysates were cleared by centrifugation at 14,000 g, 4° C. for 10 min and excess NEM was removed by protein precipitation using cold acetone. The protein pellets were resuspended in HENS buffer (HEN 1% SDS), and the SNO bonds were decomposed by adding 20 mM sodium ascorbate. The resulting free thiols were reacted with 0.05 mM sulfhydryl-specific biotinylating agent, N-(3-malemidylpropionyl)biocytin (MPB, Molecular Probes) for 30 min at room temperature, resulting in biotinylation of SNO. […] Biotinylated IKKβ was detected on the membrane using horseradish peroxidase-linked streptavidin. […]
A biotin derivatization method was also used to assess whether the IKKβ subunit is directly targeted by S-nitrosylation. […] IKKβ was subsequently immunoprecipitated from the lysates and its biotinylation was assessed using streptavidin-HRP on a western blot. […]

[3] = target: T1, IKKβ; test: SNO content of immunopurified IKKβ by chemiluminescence; assay type: cell-based; conditions: Jurkat T cells exposed to L-CSNO and TNFα
Procedure: The total cellular SNO concentration (protein-bound plus free) was measured in lysates of cells treated with SNO in presence or absence of L-or D-cys. After 3 washes with PBS, the cells were lysed in the same buffer as was used for the biotin switch method. […] The amount of NO released from samples was estimated from a standard curve generated by injection of L-CSNO stock solutions. IKKβ was immunoprecipitated from Jurkat T cell lysates, using a monoclonal IKKβ antibody and protein G-agarose beads. After washing the immunoprecipitates 3 times with HEN buffer containing 50 mM NaCl to minimize co-associating proteins, the antigen-antibody complexes were removed from the beads by three 10 min incubations in 50 μl of 100 mM glycine pH 3.0 at 4° C. The eluates were treated with 0.6% sulfanilamide prior to the assessment of the SNO content via chemiluminescence, as described before. As a control, some lysates or immunoprecipitates were treated with 4.4 mM HgCl2 for 10 min at RT, followed by 20 min incubation at 4° C., and 10 min incubation with sulfanilamide at RT. To confirm that IKKβ was the predominant protein immunoprecipitated under these conditions, Laemmli sample buffer was added to the immunoprecipitate, samples were boiled, and evaluated on a silver-stained gel. All experiments were repeated at least two times and similar results were obtained. […]

[4] = target: T2, wt HA-IKKβ (Homo sapiens, UniProt O14920); test: TNFα-stimulated kinase activity of transfected wt HA-IKKβ in C10 cells; assay type: cell-based; conditions: TNFα-stimulated enzymatic activity
T2 construct: expressed in transfected cells; host or cells: C10 mouse lung epithelial cells; plasmid a gift of Dr. Michael Karin
T2 sequence (O14920 1-756): T1 sequence (O14920 1-756)
Procedure: The cells were exposed to test agents and at indicated times, transferred to ice, washed twice with cold PBS, and lysed in buffer containing 50 mM HEPES, 150 mM NaCl, 1 mM EDTA, 2 mM MgCl2, 10 mM Na3VO4, 1 mM phenylmethylsulfonyl fluoride, 0.1% Nonidet P-40, 10 μg/ml leupeptin, 1% aprotinin, 250 μM DTT and 100 μM NaF. The lysates were cleared by centrifugation at 14,000 rpm, 4° C. for 10 min. Protein concentrations were determined and the IKK complex was immunoprecipitated with an IKKγ antibody (Santa Cruz) at 4° C. for 1.5 h using protein G agarose beads. The precipitates were washed once with lysis buffer and twice with kinase buffer (20 mM HEPES, 20 mM β-glycerolphosphate, 1 mM MnCl2, 5 mM MgCl2, 2 mM NaF and 250 μM DTT). The kinase reaction was performed using 1 μg glutathione-S transferase (GST)-IκBα as a substrate, provided by Dr. Rosa Ten (Mayo Clinic, Rochester, Minn.), and 5 μCi γ^32P-adenosine triphosphate at 30° C. for 30 min. Kinase assays were performed in presence of 250 μM DTT, the minimal concentration necessary in order to maintain maximal TNFα-stimulated activity. The reactions were stopped by the addition of 2× Laemmli sample buffer. […] In separate experiments, the immunoprecipitated IKK complex or JNK1 from TNFα-stimulated cells was exposed to SNAP or GSNO for 15 min in lysis buffer in vitro prior to assessment of kinase activity. […]

[5] = system: RelA (p65); test: RelA (p65) immunostaining, cytoplasmic versus nuclear localization; assay type: cell-based, mouse
Procedure: FIGS. 4G and 4H illustrates an assessment of the presence of cytoplasmic protein. C10 cells were mock-treated (sham) (FIG. 4G) or stimulated with TNF alpha for 30 minutes, and submitted to the biotinylation protocols similar to those described above with respect to FIG. 1. RelA (p65) was detected using specific antibodies (Santa Cruz).
FIGS. 6A and 6C illustrate cells that were incubated with leptomycin B (5 ng/ml) for about 12 hours, followed by biotin derivatization, incubation with streptavidin-FITC, and analysis by confocal microscopy. […] These findings thus support the notion that S-nitrosylation occurs in proteins that are regulated by nuclear trafficking.
To ensure that the cytoplasmic targets were still present after this procedure, the presence of RelA was evaluated in sham or TNF alpha-treated cells. RelA, a subunit of the transcription factor, nuclear factor kappa B, is normally present in the cytoplasm and is translocated into the nucleus upon exposure to TNF alpha. […] In fact, increased S-nitrosylation of cytoplasmic proteins was observed after induction of NOS2 activity.

## OO [H2O2, hydrogen peroxide]
[1]; 500 micromolar, 15 minutes
  staining pattern (biotinylation): failed to alter

## N[C@@H](CSN=O)C(=O)O [L-CSNO]
[2]
  S-nitrosylation of IKKβ (biotinylation): increase
[3]
  SNO content of IKKβ: marked increase
[4]
  activity of wt HA-IKKβ: inhibited

## CC(=O)N[C@H](C(=O)O)C(C)(C)SN=O [SNAP, S-nitroso-N-acetyl penicillamine]
[1]; 1 mM, 1 hour
  biotinylation (S-nitrosylated proteins) in intact cells: enhanced

## CCC(=C/[C@H](C)C/C=C/C(C)=C/[C@@H](C)C(=O)[C@@H](C)[C@H](O)[C@@H](C)C/C(C)=C/C(=O)O)/C=C/[C@@H]1OC(=O)C=C[C@@H]1C [leptomycin B]
[5]; 5 ng/ml, about 12 hours
  nuclear sequestration of RelA: enhanced
[1]; 5 ng/ml, about 12 hours
  biotinylation in the nuclear compartment: enhanced

## TNF alpha
[2]
  S-nitrosylation of IKKβ (biotinylation): decreased
[5]; 30 minutes, dual staining with PI
  RelA presence in nucleus: enhanced nuclear presence
